Inconclusive results and toxic doses are left out. Rule as the data show it: active = T/C of 150% or more; inactive = T/C below 125%.
Test system: L1210 leukemia ip in BDF1 mice, survival T/C
Assay: NCI In Vivo Anticancer Drug Screen. Data for tumor model L1210 Leukemia (intraperitoneal) in B6D2F1 (BDF1) mice
Conditions: endpoint: mean survival time, higher = longer survival
How it was run: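 Read-out is survival time, reported as the treated-group measurement over the vehicle-control measurement.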

[1] = dose: 100.0 mg/kg/injection, schedule: Q01DX009 (ip), vehicle: Klucel (hydroxypropylcellulose) (HPC)
[2] = dose: 100.0 mg/kg/injection, schedule: Q04DX003 (ip), vehicle: Klucel (hydroxypropylcellulose) (HPC)
[3] = dose: 200.0 mg/kg/injection, schedule: Q04DX003 (ip), vehicle: Klucel (hydroxypropylcellulose) (HPC)
[4] = dose: 400.0 mg/kg/injection, schedule: Q01DX009 (ip), vehicle: Klucel (hydroxypropylcellulose) (HPC)
[5] = dose: 400.0 mg/kg/injection, schedule: Q04DX003 (ip), vehicle: Klucel (hydroxypropylcellulose) (HPC)
[6] = dose: 100.0 mg/kg/injection, schedule: Q04DX003 (ip), vehicle: saline with Tween-80
[7] = dose: 200.0 mg/kg/injection, schedule: Q04DX003 (ip), vehicle: saline with Tween-80
[8] = dose: 400.0 mg/kg/injection, schedule: Q04DX003 (ip), vehicle: saline with Tween-80
[9] = dose: 200.0 mg/kg/injection, schedule: Q01DX009 (ip), vehicle: Klucel (hydroxypropylcellulose) (HPC)
[10] = dose: 100.0 mg/kg/injection, schedule: Q01DX001 (ip), vehicle: Klucel (hydroxypropylcellulose) (HPC)
[11] = dose: 200.0 mg/kg/injection, schedule: Q01DX001 (ip), vehicle: Klucel (hydroxypropylcellulose) (HPC)
[12] = dose: 100.0 mg/kg/injection, schedule: Q01DX001 (ip), vehicle: saline
[13] = dose: 200.0 mg/kg/injection, schedule: Q01DX001 (ip), vehicle: saline
[14] = dose: 400.0 mg/kg/injection, schedule: Q01DX001 (ip), vehicle: saline
[15] = dose: 100.0 mg/kg/injection, schedule: Q04DX003 (ip), vehicle: gum acacia
[16] = dose: 200.0 mg/kg/injection, schedule: Q04DX003 (ip), vehicle: gum acacia
[17] = dose: 400.0 mg/kg/injection, schedule: Q04DX003 (ip), vehicle: gum acacia

Measured: T/C

CC(C)Cc1ccccn1
inactive: dose: 25.0 mg/kg/injection, schedule: Q01DX009 (ip), vehicle: Klucel (hydroxypropylcellulose) (HPC) 96 % of control | dose: 50.0 mg/kg/injection, schedule: Q01DX009 (ip), vehicle: Klucel (hydroxypropylcellulose) (HPC) 98 % of control | [1] 91 % of control

C=CCNC(=S)Nc1cc(Cl)ccc1OC
inactive: [1] 90 % of control | [2] 94 % of control | [3] 92 % of control | [4] 86 % of control | [5] 94 % of control

CCN1CCN2C(=O)OCC2C1 (stereo unspecified)
inactive: dose: 100.0 mg/kg/injection, schedule: Q04DX003 (sc), vehicle: olive oil, sesame oil, peanut oil 94 % of control | dose: 200.0 mg/kg/injection, schedule: Q04DX003 (sc), vehicle: olive oil, sesame oil, peanut oil 97 % of control | dose: 400.0 mg/kg/injection, schedule: Q04DX003 (sc), vehicle: olive oil, sesame oil, peanut oil 92 % of control

Cc1cccc(NC(=O)c2ccccc2)n1
inactive: [6] 97 % of control | [7] 95 % of control | [8] 92 % of control

O=c1[nH]c2cc(Cl)cc([N+](=O)[O-])c2c2c(Cl)cc(Cl)cc12
inactive: [1] 100 % of control | [2] 95 % of control | [9] 101 % of control | [3] 97 % of control | [4] 104 % of control | [5] 92 % of control

Cc1cccc(C)c1NC(=O)Oc1ccc(C2CCCCC2)cc1
inactive: [1] 101 % of control | [2] 91 % of control | [9] 97 % of control | [3] 93 % of control | [4] 94 % of control | [5] 88 % of control

O/N=C1/CCCC/C1=C/c1ccccc1
inactive: [6] 101 % of control | [7] 97 % of control | [8] 100 % of control

COc1ccc2c(c1)CN(S(=O)(=O)c1ccc(C)cc1)CCC2O (stereo unspecified)
inactive: [1] 96 % of control | [2] 96 % of control | [9] 116 % of control | [3] 114 % of control | [4] 98 % of control | [5] 96 % of control

O=C(c1c(F)c(F)c(F)c(F)c1F)N1CC1
inactive: dose: 25.0 mg/kg/injection, schedule: Q01DX009 (ip), vehicle: water 96 % of control | dose: 50.0 mg/kg/injection, schedule: Q01DX009 (ip), vehicle: water 93 % of control

Nc1ccc(S(=O)(=O)NC(=O)NCc2ccccc2)cc1
inactive: [6] 101 % of control | [7] 98 % of control | [8] 101 % of control

COC(=O)C1c2ccoc2CC2C1C(O)C(O)C1C(C)(C)CCCC21C (stereo unspecified)
inactive: dose: 50.0 mg/kg/injection, schedule: Q04DX003 (ip), vehicle: saline with Tween-80 103 % of control | [6] 95 % of control | [7] 95 % of control

CCOC(=O)CCc1c(COC(C)=O)[nH]c(C(=O)OCC)c1C
inactive: dose: 50.0 mg/kg/injection, schedule: Q01DX001 (ip), vehicle: Klucel (hydroxypropylcellulose) (HPC) 100 % of control | [10] 92 % of control | [11] 90 % of control

COc1ccc(CC2C(=O)OC(=O)C2Cc2ccc(OC)c(OC)c2)cc1OC (stereo unspecified)
inactive: [6] 91 % of control | [7] 104 % of control | [8] 94 % of control

NC(=O)N(Cc1ccccc1)N=O
inactive: dose: 6.25 mg/kg/injection, schedule: Q01DX Z (ip), vehicle: carboxymethylcellulose (CMC) 101 % of control | dose: 12.5 mg/kg/injection, schedule: Q01DX Z (ip), vehicle: carboxymethylcellulose (CMC) 116 % of control | dose: 25.0 mg/kg/injection, schedule: Q01DX Z (ip), vehicle: carboxymethylcellulose (CMC) 104 % of control | dose: 50.0 mg/kg/injection, schedule: Q01DX Z (ip), vehicle: carboxymethylcellulose (CMC) 110 % of control | dose: 100.0 mg/kg/injection, schedule: Q01DX Z (ip), vehicle: carboxymethylcellulose (CMC) 116 % of control

Nc1ccc2ncnn2c1
inactive: [12] 103 % of control | [13] 106 % of control | [14] 101 % of control

COc1ccc(Cl)cc1-c1c(C(=O)O)cccc1[N+](=O)[O-]
inactive: dose: 100.0 mg/kg/injection, schedule: Q01DX001 (ip), vehicle: gum acacia 108 % of control | [15] 102 % of control | dose: 200.0 mg/kg/injection, schedule: Q01DX001 (ip), vehicle: gum acacia 102 % of control | [16] 102 % of control | dose: 400.0 mg/kg/injection, schedule: Q01DX001 (ip), vehicle: gum acacia 102 % of control | [17] 90 % of control

Clc1ccc(C2=CC(c3ccccc3)C3CC23)cc1 (stereo unspecified)
inactive: dose: 100.0 mg/kg/injection, schedule: Q01DX001 (ip), vehicle: saline with Tween-80 92 % of control | dose: 200.0 mg/kg/injection, schedule: Q01DX001 (ip), vehicle: saline with Tween-80 94 % of control | dose: 400.0 mg/kg/injection, schedule: Q01DX001 (ip), vehicle: saline with Tween-80 89 % of control

OC1(c2ccc(Cl)cc2)CCN(C2CC2c2ccccc2)CC1 (stereo unspecified)
inactive: [10] 98 % of control | [11] 97 % of control | dose: 400.0 mg/kg/injection, schedule: Q01DX001 (ip), vehicle: Klucel (hydroxypropylcellulose) (HPC) 98 % of control

O=C(O)c1ccccc1CCl
inactive: dose: 100.0 mg/kg/injection, schedule: Q01DX009 (ip), vehicle: saline with Tween-80 101 % of control | dose: 200.0 mg/kg/injection, schedule: Q01DX009 (ip), vehicle: saline with Tween-80 108 % of control | dose: 400.0 mg/kg/injection, schedule: Q01DX009 (ip), vehicle: saline with Tween-80 95 % of control

COc1ccc(C2NC(=O)N3C(c4ccc(OC)c(OC)c4)NC(=O)N23)cc1OC (stereo unspecified)
inactive: dose: 100.0 mg/kg/injection, schedule: Q04DX002 (ip), vehicle: gum acacia 98 % of control | dose: 200.0 mg/kg/injection, schedule: Q04DX002 (ip), vehicle: gum acacia 102 % of control | dose: 400.0 mg/kg/injection, schedule: Q04DX002 (ip), vehicle: gum acacia 105 % of control

Cc1ccc(S(=O)(=O)NNC(=O)c2cc(C)c(C)cc2N)cc1
inactive: [12] 97 % of control | [13] 101 % of control | [14] 95 % of control

OC1c2ccccc2C=Cc2ccccc21
inactive: [2] 104 % of control | [3] 101 % of control | [5] 101 % of control

Nc1nc(-c2ccccc2)[nH]c(=O)n1
inactive: [1] 100 % of control | [9] 91 % of control | [4] 93 % of control

Cc1ccc(S(=O)(=O)OC2CCC(C(C)(C)C)CC2Cl)cc1 (stereo unspecified)
inactive: [1] 98 % of control | dose: 100.0 mg/kg/injection, schedule: Q04DX003 (ip), vehicle: saline 98 % of control | [9] 108 % of control | dose: 200.0 mg/kg/injection, schedule: Q04DX003 (ip), vehicle: saline 98 % of control | [4] 98 % of control | dose: 400.0 mg/kg/injection, schedule: Q04DX003 (ip), vehicle: saline 94 % of control

CCCCOC(=O)Nc1ccc(N)c(NC(=O)OCCCC)n1
inactive: dose: 100.0 mg/kg/injection, schedule: Q01DX009 (ip), vehicle: gum acacia 88 % of control | [15] 99 % of control | dose: 200.0 mg/kg/injection, schedule: Q01DX009 (ip), vehicle: gum acacia 93 % of control | [16] 99 % of control | dose: 400.0 mg/kg/injection, schedule: Q01DX009 (ip), vehicle: gum acacia 91 % of control | [17] 97 % of control

COC(OC)c1[nH]c(=S)[nH]c(=O)c1Cc1cc(C)ccc1C
inactive: dose: 100.0 mg/kg/injection, schedule: Q01DX009 (ip), vehicle: saline 99 % of control | dose: 200.0 mg/kg/injection, schedule: Q01DX009 (ip), vehicle: saline 101 % of control | dose: 400.0 mg/kg/injection, schedule: Q01DX009 (ip), vehicle: saline 103 % of control

O=c1[nH]c2ccccc2n1C1OC(CO)C(O)C1O (stereo unspecified)
inactive: [12] 98 % of control | [13] 93 % of control | [14] 100 % of control

O=Cc1cccc(/C=N/Nc2nnc(N/N=C/c3cccc(C=O)c3)c3ccccc23)c1
inactive: dose: 50.0 mg/kg/injection, schedule: Q01DX001 (ip), vehicle: saline 98 % of control | [12] 98 % of control | [13] 90 % of control | [14] 93 % of control

Source: PubChem BioAssay AID248 (DTP/NCI, 2004)
